Results reported in US20240156854A1, “METHYLCOBALAMIN OPHTHALMIC PREPARATION AND USE THEREOF” (EYE INSTITUTE OF SHANDONG FIRST MEDICAL UNIVERSITY, priority 2022, published 2024).

Assays:
[1] = test system: Mouse model of neurotrophic keratitis; assay: Confocal laser microscope imaging of corneal nerves (β-tubulin III staining) in mouse model of neurotrophic keratitis; type: in vivo, C57BL/6 mice; conditions: 14 d after the operation
Experimental: (§1) (1) C57BL/6 mice, 6 to 8 weeks old, male, weighing 20 g to 25 g, were purchased from Beijing Vital River Laboratory Animal Technology Co., Ltd. Animal breeding was conducted in the Animal Laboratory of the Eye Institute of Shandong First Medical University. The temperature was controlled at 22±2° C., the humidity was controlled at 60±10%, a light and dark cycle was 12 h, and food and drink were given ad libitum.
(2) Experimental grouping: 30 of 6- to 8-week-old C57BL/6 male mice (body weight 20 g to 25 g) were randomly divided into 5 groups, 6 in each group, respectively: • 1. A control group • 2. An eye drop group with the control methylcobalamin ophthalmic drop Comparative Example 1 • 3. An eye drop group with a recombinant human nerve growth factor • 4. An eye drop group with methylcobalamin+proanthocyanidin (Example 1) • 5. A subconjunctival implantation group with a methylcobalamin hydrogel (Example 2) […]
Samples were taken 14 d after the operation. […] The cornea was washed 6 times with PBS, 10 min each time, the corneal epithelium was spread upward, and sealed with DAPI-containing anti-fluorescence quenching buffered glycerin, stored in the dark, and then imaged with a confocal laser microscope.

[2] = test system: Mouse model of neurotrophic keratitis; assay: Slit lamp photography of the eye in mouse model of neurotrophic keratitis; type: in vivo, C57BL/6 mice; conditions: day 7, slit lamp; eye drops 4 times a day or subconjunctival hydrogel implant (about 0.02 mg)
Experimental: as §1
(2) Experimental grouping: 30 of 6- to 8-week-old C57BL/6 male mice (body weight 20 g to 25 g) were randomly divided into 5 groups, 6 in each group, respectively: • 1. A control group • 2. An eye drop group with the control methylcobalamin ophthalmic drop Comparative Example 1 • 3. An eye drop group with a recombinant human nerve growth factor • 4. An eye drop group with methylcobalamin+proanthocyanidin (Example 1) • 5. A subconjunctival implantation group with a methylcobalamin hydrogel (Example 2)
The mice were intraperitoneally anesthetized with a 0.6% pentobarbital sodium solution (1 ml/100 g), fixed on an operating table in a lateral position, and the bulbar conjunctiva was incised 90 degrees along the temporal corneoscleral limbus with Vannas scissors. The retroorbital venous plexus should not be damaged. […]

In the case of “recombinant human nerve growth factor: recombinant human nerve growth factor eye drops, comparator group”, the “regeneration of corneal nerve endings” value [1] is reported as “regenerated” and the corneal neovascularization [2] is reported as “not obvious”.
